The source of these data is ChEMBL document CHEMBL6134902, “Novel tacrine-based multi-target directed Ligands: Enhancing cholinesterase inhibition, NMDA receptor antagonism, and CNS bioavailability for Alzheimer's disease treatment” (Eur J Med Chem, 2025).

The structures appear in SMILES notation.

The conditions of series [1]: human, microsomes, 0.75 h, 3 µM.
The nature of series [2]: in vitro. The conditions noted are these: human, liver microsomes. For orientation: Microsomes from liver hold many membrane-bound enzymes, among them those of drug oxidation.
Series [3] in a line: in vitro. To be noted: human, liver microsomes. The source holds these as a separate data set.
Series [4] is described as follows: Lipophilicity, LogD of compound at pH 2.6 by chromatography. The class given is physicochemical. The conditions noted are these: buffer.
Series [5] can be described thus: Lipophilicity, LogD of compound at pH 7.4 by chromatography. The format is physicochemical. To be noted: buffer.
A short description of series [6]: Lipophilicity, LogD of compound at pH 10.5 by chromatography. The class given is physicochemical. To be noted: buffer.
The nature of series [7]: Toxicity in male BALB/c mouse administered intraperitoneally measured for 48 hrs. To be noted: in vivo, route ip.
Series [8] can be described thus: Drug uptake in plasma of male BALB/c mouse at 15 mg/kg, ip measured after 48 hrs. The format is ADME, organism-based. The conditions noted are these: in vivo.
Series [9] can be described thus: Drug uptake in brain of male BALB/c mouse at 15 mg/kg, ip measured after 48 hrs. The format is ADME, organism-based. The conditions noted are these: in vivo.
A short description of series [10]: Cmax in plasma of male Balb/c mouse at 15 mg/kg, ip measured up to 120 mins. The class given is ADME, organism-based.
Series [11] can be described thus: Tmax in plasma of male Balb/c mouse at 15 mg/kg, ip measured up to 120 mins. The format is ADME, organism-based.
The nature of series [12]: AUC (0 to 120 mins) in plasma of male Balb/c mouse at 15 mg/kg, ip measured up to 120 mins. The class given is ADME, organism-based.
The nature of series [13]: AUC (infinity) in plasma of male Balb/c mouse at 15 mg/kg, ip measured up to 120 mins. The format is ADME, organism-based.
Series [14] can be described thus: Cmax in brain of male Balb/c mouse at 15 mg/kg, ip measured up to 120 mins. The class given is ADME, organism-based.
Series [15] in a line: Tmax in brain of male Balb/c mouse at 15 mg/kg, ip measured up to 120 mins. The format is ADME, organism-based.
Series [16] is described as follows: AUC (0 to 120 mins) in brain of male Balb/c mouse at 15 mg/kg, ip measured up to 120 mins. The format is ADME, organism-based.
A short description of series [17]: AUC (infinity) in brain of male Balb/c mouse at 15 mg/kg, ip measured up to 120 mins. The format is ADME, organism-based.
A further series can be described thus: in vivo. The conditions noted are these: male, Balb/c, mouse, brain/plasma, ip, 15 mg/kg.

Usually half-life stands for the time in which the quantity being followed falls by half. High values mean slow decline, low ones rapid decline. One may read the microsomal CLint as the rate of metabolic loss divided by the concentration. Read a low microsomal CLint as greater metabolic stability. In the case of `COc1ccc2nc3c(c(N)c2c1)CCCC3`, the Drug metabolism in series [1] is reported as 13.2 10^6No_unit. Besides, in the series “in vitro [2]”, the half-life at 0.75 h, 3 µM amounted to 32.8 min. The same compound displayed a microsomal CLint at 0.75 h, 3 µM in “in vitro [3]” of 42.2 µL/min/mg.

By chromatographic logD is commonly meant lipophilicity estimated from chromatographic retention. A low value points to lower lipophilicity. The compound `Nc1c2c(nc3ccc(Oc4ccccc4)cc13)CCCC2` registered a CHI of 27.6. Further, the chromatographic logD in series [4] was 1.83. This compound also registered a chromatographic logD in [5] of 3.82. Also, the chromatographic logD in [6] came out at 4.49. Besides, the Drug metabolism in series [1] is recorded as 473.1 10^6No_unit. The compound also had a half-life at 0.75 h, 3 µM in “in vitro [2]” of 330 min. This compound also came in with a microsomal CLint at 0.75 h, 3 µM in the series “in vitro [3]” of 4.2 µL/min/mg.

In the case of `Cc1ccc(-c2ccc3nc4c(c(N)c3c2)CCCC4)o1`, the CHI turned out to be 29.5. Further, the chromatographic logD in series [4] was 1.94. The chromatographic logD in [5] worked out at 4.06. The chromatographic logD in series [6] worked out at 4.58. For the same compound, in [1], the Drug metabolism is 215.5 10^6No_unit. This compound showed a half-life at 0.75 h, 3 µM in the series “in vitro [2]” of 5.8 min. Also, the microsomal CLint at 0.75 h, 3 µM in “in vitro [3]” worked out at 239 µL/min/mg.

Take `CC(C)COc1cccc(-c2ccc3nc4c(c(N)c3c2)CCCC4)c1`: the CHI turned out to be 38.8. In addition, the chromatographic logD in series [4] stood at 2.87. For the same compound, the chromatographic logD in series [5] was determined as 5.58. Besides, the chromatographic logD in series [6] worked out at 5.79.

`Nc1c2c(nc3ccc(-c4ccc(F)nc4)cc13)CCCC2` displayed a CHI of 23. This compound also showed a chromatographic logD in series [4] of 1.44. The same compound returned a chromatographic logD in series [5] of 3.24. The chromatographic logD in series [6] is 3.81.

The compound `COc1cc(-c2ccc3nc4c(c(N)c3c2)CCCC4)ccn1` displayed a CHI of 25.3. The chromatographic logD in series [4] was 1.63. Further, in series [5], the chromatographic logD was determined as 3.69. In series [6], this compound registered a chromatographic logD of 3.99.

`COc1ncc(-c2ccc3nc4c(c(N)c3c2)CCCC4)cn1` displayed a CHI of 19.1. In [4], this compound registered a chromatographic logD of 1.26. In addition, in series [5], the chromatographic logD came out at 2.94. The compound further returned a chromatographic logD in [6] of 3.2.

The compound `Nc1c2c(nc3ccc(-c4ccc(Cl)s4)cc13)CCCC2` had a CHI of 37.9. In series [4], this compound yielded a chromatographic logD of 2.28. The compound also gave a chromatographic logD in [5] of 4.86. The chromatographic logD in series [6] stood at 5.42.

`Nc1c2c(nc3ccc(-c4ccoc4)cc13)CCCC2` gave a CHI of 26.2. This compound came in with a chromatographic logD in [4] of 1.59. In addition, the chromatographic logD in series [5] was found to be 3.43. Further, the chromatographic logD in series [6] was 4.08.

Regarding `Nc1c2c(nc3ccc(-c4ccncc4)cc13)CCCC2`, the CHI is 20.2. Also, in series [4], the chromatographic logD was 0.47. Also, in [5], the chromatographic logD was 3.52. Also, the chromatographic logD in series [6] was determined as 3.05. Moreover, the Drug metabolism in series [1] is 172.8 10^6No_unit. In addition, the half-life at 0.75 h, 3 µM in the series “in vitro [2]” amounted to 30 min. The compound further returned a microsomal CLint at 0.75 h, 3 µM in the series “in vitro [3]” of 46.2 µL/min/mg.

For `CN(C)c1cccc(-c2ccc3nc4c(c(N)c3c2)CCCC4)c1`, the CHI amounted to 31.6. For the same compound, the chromatographic logD in [4] turned out to be 1.4. This compound showed a chromatographic logD in [5] of 4.5. The chromatographic logD in series [6] came to 4.86.

`Nc1c2c(nc3ccc(-c4ccc(Cl)nc4)cc13)CCCC2`: the CHI was 26. The chromatographic logD in series [4] turned out to be 1.6. Further, the chromatographic logD in series [5] was 3.65. Besides, the chromatographic logD in [6] was 4.15.

On to `Nc1c2c(nc3ccc(-c4cccs4)cc13)CCCC2`, for which the CHI is given as 29.6. The chromatographic logD in series [4] is 1.77. In addition, in series [5], the chromatographic logD was 3.85. This compound displayed a chromatographic logD in [6] of 4.54.

`Nc1c2c(nc3ccc(-c4ccsc4)cc13)CCCC2` came in with a CHI of 29.9. In addition, the chromatographic logD in [4] was 1.78. In series [5], this compound returned a chromatographic logD of 3.8. Further, the chromatographic logD in series [6] was found to be 4.48.

For the compound `Nc1c2c(nc3ccc(-c4cncnc4)cc13)CCCC2`, the CHI is 14.7. In addition, in [4], the chromatographic logD is 0.99. This compound also registered a chromatographic logD in series [5] of 2.73. The chromatographic logD in [6] is 2.59. The Drug metabolism in series [1] is 200.7 10^6No_unit. This compound also came in with a half-life at 0.75 h, 3 µM in the series “in vitro [2]” of 93.7 min. Further, the microsomal CLint at 0.75 h, 3 µM in “in vitro [3]” was determined as 14.8 µL/min/mg.

For orientation: NOAEL means the highest dose or exposure tested at which no adverse effect was seen. Usually Cmax stands for the maximum level reached in the sampled fluid or tissue. A word on the Tmax: it is the time at which the peak concentration occurs. The term AUC(0-t) denotes exposure summed from dosing to a finite time, without extrapolation to infinity. The low end stands for less exposure, the high end for more exposure. The AUC(0-inf) is total exposure, with the tail of the curve extrapolated. Read a low AUC(0-inf) as less exposure. By Kp is commonly meant tissue or fluid exposure divided by exposure in the circulation. In turn, `Cc1csc(-c2ccc3nc4c(c(N)c3c2)CCCC4)c1` yielded a CHI of 33. Besides, the chromatographic logD in series [4] was 2.12. This compound also showed a chromatographic logD in [5] of 4.41. Also, the chromatographic logD in [6] was 4.96. In series [7], the NOAEL at 48 h stood at 15 mg/kg. Also, the Drug uptake result in series [8] is recorded as “Active”. In addition, the Drug uptake entry in series [9] is “Active”. For the same compound, in series [10], the highest level (Cmax) was 945 nM. Moreover, the Tmax in series [11] is 15 min. This compound showed an AUC(0-t) at 2 h in series [12] of 0.775 µM·h. This compound showed an AUC(0-inf) in series [13] of 1.08 µM·h. This compound also registered a Cmax in [14] of 1470 nM. Also, the Tmax in [15] was 26.2 min. For the same compound, in series [16], the AUC(0-t) at 2 h is 1.83 µM·h. This compound also had an AUC(0-inf) in [17] of 1.96 µM·h. Further, in series [1], the Drug metabolism is reported as 207 10^6No_unit. In addition, the Kp at 2 h in “in vivo” is 2.36. Also, in the series “in vitro [2]”, the half-life at 0.75 h, 3 µM was 6.2 min. The microsomal CLint at 0.75 h, 3 µM in the series “in vitro [3]” worked out at 224 µL/min/mg.

Turning to `COc1ncc(-c2ccc3nc4c(c(N)c3c2)CCCC4)c(OC)n1`, the CHI stood at 12.2. For the same compound, the chromatographic logD in [4] is 0.65. In series [5], this compound yielded a chromatographic logD of 1.2. The compound further showed a chromatographic logD in series [6] of 1.4.
